Starred links: 1 amine or outer side, 2 acyl side, 3 side chain; linkers in the order of their positions; H or OH if unused. Positions of bridges follow the written chain, without caps; N, C: chain ends. Non-standard residues stand in square brackets, D forms with d. Residues, ends and D or L forms follow the SMILES beside them. *: point of attachment. Orn(4R-OH,5R-OCH2CH2NMe3+) = C[N+](C)(C)CCO[C@@H](N[*:3])[C@H](O)C[C@H](N[*:1])C(=O)[*:2]; pTerphenylCO(4''-OnC5H11) = CCCCCOc1ccc(-c2ccc(-c3ccc(C(=O)*)cc3)cc2)cc1; hTyr(3S-OH,4S-OH) = N[C@H](C(=O)O)[C@H](O)[C@@H](O)c1ccc(O)cc1; Pro(3S-OH,4S-Me) = C[C@H]1CN[C@H](C(=O)O)[C@H]1O; Hyp = O=C(O)[C@@H]1C[C@@H](O)CN1
Key:
[1] = Open-label single-dose study in hepatic impairment; type: in vivo, human
Method: Materials &Methods: The safety, tolerability, and PK of rezafungin in subjects with moderate (Group 1a) and severe (Group 2a) HI (Child-Pugh class Band C) and healthysubjects (HS, Groups 1b and 2b) was investigated in this open-label, single-dose study. Each Hl group enrolled was matched to a separate HS group (n = 8 each 32 total) by age, sex and body mass index (BMI) and received a single 400-mg intravenous 1 h infusion of RZF.Plasma PK sampling was performed at various time points through 336 h post- dose. Rezafungin PKparameters were derived using non-compartmental analysis. Safety and tolerability were assessed throughout the study.

Candida albicans (CA) = test: Post-antifungal effect (PAFE); type: cell-based; details: CA clinical isolate; all concentrations (1×, 4×, 16× bMIC), 1 h exposure
Method: (§1) Materials &Methods: Six Candida spp. […] For PAFE determinations, antifungal concentrations of 1×, 4×, and 16× bMiC were used. A starting inoculum of 1–[…] CFU/mLwas added to RPMl with the antifungal agent. Post 1 h exposure, cells were washed 3 times and resuspended in 10 mL of pre-warmed RPMl. Colony counts were performed at to, 1 h before and after final washt t2, t4, t8, t12, t24 and t48 h. PAFE was calculated as the difference in time required for isolates to rrow1-logio following the final cell wash compared to the growth control.

C. glabrata (CGLA) = test: Post-antifungal effect (PAFE); type: cell-based, Candida glabrata
Method: as §1

C. parapsilosis (CPRP) = test: Post-antifungal effect (PAFE); type: cell-based, Candida parapsilosis; details: CPRP ATCC 22019, all concentrations
Method: as §1

C. albicans = test: Neutrophil control of hyphal growth (swarming); type: cell-based, Candida albicans; details: neutrophils of SOT and SCT recipients, ex vivo
Method: Methods and Materials: Twenty-one SOT, 19 SCT and 23 healthy control patients (HC) were identified and consented at primary care/outpatient transplant clinics. Transplant recipients were enrolled at a time period two to four months post-transplant. Following consent and peripheral blood collection, neutrophils were freshly isolated and co-incubated with C. albicans and the percent remaining live yeast was measured using a viability dye compared to a standard control to determine fungal elimination by neutrophils. Growth inhibition of C. albicans was also quantified by neutrophil swarming to yeast spotted onto glass slides, assessed by live cell imaging with or without G-CSF. Effect of soluble factors on neutrophils function was determined by incubation of healthy neutrophils with SOT and SCT serum and measuring ability to control C. albicans.

Row | Molecule | AEs, moderate hepatic impairment group ([1]; all mild severity) | AEs, severe hepatic impairment group ([1]; all moderate severity, unrelated) | AEs, all groups ([1]; in 7 of 32 subjects) | mean exposure lower than in healthy subjects ([1]; moderate or severe HI, single 400-mg intravenous 1 h infusion, AUC, Cmax) | mean half-life ([1]; range across groups, non-compartmental analysis) | PAFE (Candida albicans (CA)) | PAFE (C. glabrata (CGLA); CGLA #3 isolate, 1× bMIC) | PAFE (C. glabrata (CGLA); both CGLA strains, all concentrations) | PAFE (C. parapsilosis (CPRP)) | neutrophil ability to control hyphal growth (C. albicans)
1 | CCCCCOc1ccc(-c2ccc(-c3ccc(C(=O)N[C@H]4C[C@@H](O)[C@@H](OCC[N+](C)(C)C)NC(=O)[C@@H]5[C@@H](O)[C@@H](C)CN5C(=O)[C@H]([C@@H](C)O)NC(=O)[C@H]([C@H](O)[C@@H](O)c5ccc(O)cc5)NC(=O)[C@@H]5C[C@@H](O)CN5C(=O)[C@H]([C@@H](C)O)NC4=O)cc3)cc2)cc1 [rezafungin, Rezafungin] ({pTerphenylCO(4''-OnC5H11)}-[Orn(4R-OH,5R-OCH2CH2NMe3+)]T[Hyp][hTyr(3S-OH,4S-OH)]T[Pro(3S-OH,4S-Me)]; lactam 1-C) | 5 | 3 | 9 | ~ 30% | 110 to 124 h | > 14.9 h | > 46.7 h | > 40 h | > 40 h | –
2 | G-CSF (protein, UniProt P09919 31-207, looked up) Granulocyte …: TPLGPASSLPQSFLLKCLEQVRKIQGDGAALQEKLVSECATYKLCHPEELVLLGHSLGIPWAPLSSCPSQALQLAGCLSQLHSGLFLYQGLLQALEGISPELGPTLDTLQLDVADFATTIWQQMEELGMAPALQPTQGAMPAFASAFQRRAGGVLVASHLQSFLEVSYRVLRHLAQP | – | – | – | – | – | – | – | – | – | partially restored

Reference: article PMC8624133, “10th Trends in Medical Mycology Held on 8 to 11 October 2021, Aberdeen, Scotland, Organized by the European Confederation of Medical Mycology (ECMM)” (Journal of Fungi, 2021)
